Assay results: ChEMBL document CHEMBL1152488, “Synthesis and evaluation of pyrido[1,2-a]pyrimidines as inhibitors of nitric oxide synthases” (Eur J Med Chem, 2009)

Target: T1, Nitric oxide synthase, inducible (Mus musculus, UniProt P29477)
T1 sequence (P29477 whole entry): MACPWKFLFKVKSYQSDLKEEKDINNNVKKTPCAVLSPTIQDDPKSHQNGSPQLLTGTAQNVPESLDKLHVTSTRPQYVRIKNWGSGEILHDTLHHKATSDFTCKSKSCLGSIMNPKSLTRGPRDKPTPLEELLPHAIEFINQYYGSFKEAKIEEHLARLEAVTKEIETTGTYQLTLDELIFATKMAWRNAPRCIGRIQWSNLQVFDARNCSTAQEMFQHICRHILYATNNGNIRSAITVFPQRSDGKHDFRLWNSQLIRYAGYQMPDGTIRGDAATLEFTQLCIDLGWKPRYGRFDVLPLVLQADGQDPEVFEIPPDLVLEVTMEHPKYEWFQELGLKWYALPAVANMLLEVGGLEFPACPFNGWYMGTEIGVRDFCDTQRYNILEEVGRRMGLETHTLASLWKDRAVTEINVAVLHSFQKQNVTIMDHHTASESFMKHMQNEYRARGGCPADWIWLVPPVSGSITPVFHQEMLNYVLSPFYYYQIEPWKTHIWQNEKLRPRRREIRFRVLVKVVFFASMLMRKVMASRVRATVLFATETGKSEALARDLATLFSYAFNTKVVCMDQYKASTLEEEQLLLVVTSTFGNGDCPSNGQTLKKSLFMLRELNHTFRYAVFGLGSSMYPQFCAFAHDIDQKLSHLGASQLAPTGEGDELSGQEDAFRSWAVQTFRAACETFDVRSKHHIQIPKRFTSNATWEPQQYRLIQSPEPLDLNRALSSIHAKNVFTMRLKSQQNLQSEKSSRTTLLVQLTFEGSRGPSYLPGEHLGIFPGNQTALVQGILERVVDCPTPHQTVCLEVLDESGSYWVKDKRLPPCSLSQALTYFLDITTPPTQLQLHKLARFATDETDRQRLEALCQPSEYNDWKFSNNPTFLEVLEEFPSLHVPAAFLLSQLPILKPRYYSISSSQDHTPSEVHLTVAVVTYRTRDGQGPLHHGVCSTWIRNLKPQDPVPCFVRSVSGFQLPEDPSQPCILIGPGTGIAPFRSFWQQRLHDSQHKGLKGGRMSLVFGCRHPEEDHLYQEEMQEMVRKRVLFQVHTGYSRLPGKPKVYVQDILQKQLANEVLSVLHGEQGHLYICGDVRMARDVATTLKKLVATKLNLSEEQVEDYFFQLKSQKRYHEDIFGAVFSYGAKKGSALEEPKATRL
Assay: Inhibition of mouse recombinant iNOS expressed in Escherichia coli assessed as conversion of [14C]L-arginine to [14C]L-citrulline by radioactive assay

Structure (SMILES): CC1=CC2=NCC(C(=O)c3ccc(-c4ccc(Br)cc4)cc3)CN2C=C1.[O-][Cl+3]([O-])([O-])O (stereo unspecified)
- IC50: 28 µM
